Source: article PMC12723449, “From Pharmacophore to Warhead: NAD^+‐Targeting Triazoles as Mechanism‐Based Sirtuin Inhibitors” (Angewandte Chemie (International Ed. in English), 2025)
Like-named read-outs stand apart in the source and are kept apart here.

How the values were obtained:
Format in all cases: biochemical
[1] = target: T1, SIRT1 (Homo sapiens, UniProt Q96EB6); experiment: Fluorescence-based deacetylation assay (ZMAL-assay), SIRT1; details: 37 °C, assay limit 0.10 µM
T1 construct: For assay experiments, strep-tagged human SIRT1134−747 and SIRT256-356 were expressed and purified as previously; Strep-tag; made in house; host or cells: E. coli BL21 Star (DE3)
T1 sequence (Q96EB6 134-747 limits assumed): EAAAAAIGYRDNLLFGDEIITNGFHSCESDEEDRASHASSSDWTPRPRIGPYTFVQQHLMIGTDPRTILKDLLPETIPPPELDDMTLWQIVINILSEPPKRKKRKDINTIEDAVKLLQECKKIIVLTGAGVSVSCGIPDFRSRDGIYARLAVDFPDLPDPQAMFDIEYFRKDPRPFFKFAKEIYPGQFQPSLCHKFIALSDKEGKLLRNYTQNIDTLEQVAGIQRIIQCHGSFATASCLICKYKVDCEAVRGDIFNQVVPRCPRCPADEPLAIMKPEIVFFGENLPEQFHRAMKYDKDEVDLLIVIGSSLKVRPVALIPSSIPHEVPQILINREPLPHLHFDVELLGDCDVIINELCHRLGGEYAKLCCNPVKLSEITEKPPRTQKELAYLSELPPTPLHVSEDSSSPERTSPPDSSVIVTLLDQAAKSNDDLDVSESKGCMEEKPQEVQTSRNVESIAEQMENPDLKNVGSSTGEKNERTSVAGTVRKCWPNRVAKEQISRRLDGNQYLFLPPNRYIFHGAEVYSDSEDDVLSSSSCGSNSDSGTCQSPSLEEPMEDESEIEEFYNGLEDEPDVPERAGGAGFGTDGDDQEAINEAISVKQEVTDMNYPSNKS
Procedure: (§1) Determination of IC50 values (SIRT1, SIRT2, SIRT3) via fluorescence-based deacetylation assay […]
(§2) The fluorescence-based deacetylation assay was conducted in a black 384-well microplate (OptiPlate-384 F, PerkinElmer) with a total volume of 30 µL per well and a final DMSO concentration of 2% (v/v) according to a […]
(§3) concentration of 100 nM) in assay buffer (50 mM Tris, 137 mM NaCl, 2.7 mM KCl, 1m MgCl2, 0.01% Tween, 0.05 mg/mL BSA, 0.2 mM TCEP, pH 8.0), 5 µL of substrate (ZMAL, final concentration of 10.5 µM), 5 µL of NAD+ (final concentration of 500 µM) and 10 µL of inhibitor solution (final concentration of 30 µM – 0.014 µM, serial 1:3 dilutions) was incubated at 37 °C and 300 rpm for 4 h. A solution of trypsin (final concentration of 0.5 mg/mL) and nicotinamide (final concentration of 4 mM) was added and incubated at 37 °C and 300 rpm for 30 min to stop the reaction. Samples with 2% (v/v) DMSO instead of inhibitor were prepared as a positive control, and samples with 2% (v/v) DMSO instead of SIRT enzyme were prepared as a negative control. Fluorescence intensity was measured with a microplate reader (λEx = 380-10 nm, λEm = 460 nm, BMG POLARstar Optima, BMG Labtech, Germany). IC50 values were then determined using a nonlinear regression fit with Origin Pro 2019 software. All experiments were performed at least in duplicates. […]

[2] = target: T2, SIRT2 (Homo sapiens, UniProt Q8IXJ6); experiment: Fluorescence-based demyristoylation assay (BSA-Assay)
T2 construct: For assay experiments, strep-tagged human SIRT1134−747 and SIRT256-356 were expressed and purified as previously; Strep-tag; made in house; host or cells: E. coli BL21 Star (DE3)
T2 sequence (Q8IXJ6 56-356 limits assumed): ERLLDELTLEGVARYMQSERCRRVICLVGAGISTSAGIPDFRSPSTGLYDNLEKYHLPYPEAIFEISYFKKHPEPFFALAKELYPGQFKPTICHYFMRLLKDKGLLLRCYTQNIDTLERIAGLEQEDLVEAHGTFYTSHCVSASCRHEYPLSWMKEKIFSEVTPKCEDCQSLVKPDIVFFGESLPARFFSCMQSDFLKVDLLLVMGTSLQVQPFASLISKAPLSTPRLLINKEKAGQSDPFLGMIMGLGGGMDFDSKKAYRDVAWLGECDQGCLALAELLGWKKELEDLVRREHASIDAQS
Procedure: Determination of IC50 values (SIRT2) via fluorescence-based demyristoylation assay (BSA-Assay) The fluorescence-based demyristoylation assay was conducted in a continuous manner in a black 384-well microplate (OptiPlate-384 F, PerkinElmer) with a total volume of 40 µL per well and a final DMSO concentration of 5% (v/v), following a published procedure.[9] A mixture of 14 µL SIRT2 (final concentration of 1 nM) in assay buffer (20 mM Tris, 150 mM NaCl, […], pH 7.8) freshly supplemented with 2 mg/mL of BSA, 14 µL of substrate (F4, KM = 33 ± 5 nM[9], final concentration of 40 nM) and 2 µL of inhibitor solution (final concentration of 100 µM – 0.002 µM, serial 1:2 or 1:4 dilutions) was incubated at 25 °C and 350 rpm for 5 min. Samples with 5% (v/v) DMSO instead of inhibitor were measured as a positive control, and samples with assay buffer and 5% (v/v) DMSO instead of SIRT2 were measured as a negative control. The reaction was started with the addition of 10 µL NAD+ (final concentration of 500 µM) and the product formation was immediately monitored by the change of the fluorescence intensity at 25 °C for 20 min. For NAD+ preincubation experiments, instead of the substrate, 10 µL of NAD+ (final concentration of 500 µM) was added to the solution and incubated at 25 °C and 350 rpm for 15 min. The reaction was started with the addition of 14 µL substrate (final concentration of 40 nM) and the product formation was immediately monitored by the change of the fluorescence intensity at 25 °C every 60 s for 20 min using a microplate reader (λEx = 485 nm, λEm = 530-10 nm, BMG POLARstar Optima, BMG Labtech, Germany).
The activity was normalized using the positive control as 100% and the negative control as 0%. The normalized activity (v/v0) was plotted as a function of the logarithm of the inhibitor concentration [I], and a nonlinear fit was performed according to the following equation to determine the IC50 value.[9] […]

[3] = target: T3, SIRT3 (Homo sapiens, UniProt Q9NTG7); experiment: Fluorescence-based deacetylation assay (ZMAL-assay), SIRT3; details: 37 °C, assay limit 0.10 µM
T3 construct: Human SIRT3118-395 was expressed and purified as previously described.[5]; made in house
T3 sequence (Q9NTG7 118-395 limits assumed): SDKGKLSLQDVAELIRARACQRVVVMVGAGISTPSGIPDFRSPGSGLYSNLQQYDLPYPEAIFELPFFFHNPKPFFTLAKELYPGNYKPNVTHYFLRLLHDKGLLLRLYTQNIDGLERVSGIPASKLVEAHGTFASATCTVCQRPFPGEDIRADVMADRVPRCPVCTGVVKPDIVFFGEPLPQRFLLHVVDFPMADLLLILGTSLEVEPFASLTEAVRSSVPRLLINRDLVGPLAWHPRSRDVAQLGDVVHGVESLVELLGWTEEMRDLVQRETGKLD
Procedure: as §1, §2, §3

[4] = BSA-Assay, 25 °C, read-out: SIRT2 (demyr.) IC50

| SIRT1 (deac.) IC50 [1] | IC50 [2, 4] [nM] | SIRT3 (deac.) IC50 [3] | IC50 ([1]; read-out: SIRT1 (deac.) IC50) [nM] | IC50 ([2]; 15 min NAD+ preincubation, read-out: IC50, SIRT2 demyristoylation after NAD+ preincubation) [nM] | IC50 ([2]; fatty-acylated substrate, without NAD+ preincubation, read-out: IC50, SIRT2 demyristoylation) [nM] | IC50 ([3]; read-out: SIRT3 (deac.) IC50) [nM] | SMILES |
| --- | --- | --- | --- | --- | --- | --- | --- |
| n.i. | 660 ± 100 | n.i. | – | – | – | – | COCCn1cc(COc2cccc(Cc3cnc(NC(=O)CSc4nc(C)cc(C)n4)s3)c2)nn1 [Compound 1, reference compound] |
| – | 30 ± 10 | – | < 100 | 3.6 ± 0.6 | 28 ± 6 | 130 ± 10 | CCCCCCCCCCCCc1cn(CCCC[C@H](NC(=O)[C@H](CCCCN)NC(=O)[C@@H]2CCCN2C(=O)[C@H](CC(C)C)NC(=O)[C@H](C)NC(=O)[C@H](CCC(=O)O)NC(C)=O)C(=O)N[C@H](C(=O)NCC(=O)NCC(N)=O)[C@@H](C)O)nn1 [Compound 6] |
| n.i. | > 10000 | n.i. | – | – | – | – | Cc1cc(C)nc(SCC(=O)Nc2ncc(Cc3cccc(OCc4c[nH]nn4)c3)s2)n1 [Compound 7] |
